Measured values reported in PMC8047729, “Identification of a nanomolar affinity α-synuclein fibril imaging probe by ultra-high throughput in silico screening” (Chemical Science, 2020).
“Also recorded” adds a separate entry of the source.

What was measured:
αS fibrils [1] = biological target: T1, αS fibrils (Homo sapiens, UniProt P37840); test: Photo-crosslinking assay with MALDI-MS of tryptic digest; type: binding; conditions: 100 μM crosslinker, 365 nm irradiation, trypsin digest MALDI-MS
Protocol: Photo-crosslinking assay. Aggregations of αS prepared as described above were transferred to a clear glass vial to assist in photo -crosslinking, and compounds ClX1, ClX2, or DMSO (as a vehicle control) were delivered to their respective vials (100 μM final concentrations). The resulting fibril-crosslinker or fibril-DMSO mixture was incubated for 1 h at 37 °C, and thereafter irradiated with long wave UV from a TLC lamp (365 nm) for 1 h. The irradiated fibrils were then boiled in SDS (25 mM final concentration), and subjected to CHCl3/MeOH precipitation to remove excess detergent and buffer as previously described.2 The translucent brown protein pellet was then resuspended in 40 μL of sterilized, Milli-Q water. At this point, the whole protein sample was subjected to MALDI-MS analuysis by spotting 1 μL of sample in 1μL of sinapic acid matrix, prepared as a saturated solution in a 50:50 mixture of ACN:H2O with 0.1% TFA. The remaining sample was digested using trypsin (Promega Corporation) at 37 °C overnight (50 mM NH4CO3, 1 mM CaCl2, 1:50-1:100 protein:trypsin ratio). The resulting tryptic peptide mixture was diluted 1:10 in sterile water with 0.1% TFA, and analyzed via MALDI-MS by spotting 1 μL of sample in 1 μL of CHCA matrix or DHB matrix, prepared as saturated solutions in a 50:50 mixture of ACN:H2O with 0.1% TFA. […]

[2] = biological target: αS fibrils in mouse brain lysate (Homo sapiens, UniProt P37840); test: Photo-crosslinking and click labeling in mouse brain lysate; type: binding; conditions: 50 μM CLX2, 50 μM αS fibrils, 10 mg/ml lysate
Excerpt: Photo-crosslinking in Mouse Brain Lysate
Total Mouse Brain Protein Preparation. Mice were anesthetized using isoflurane gas in a closed chamber (AKORN, Lake Forest, IL, USA) followed by cervical dislocation. Brains were quickly dissected and snap-frozen in dry ice. Mouse brains were mechanically homogenized in five -fold excess (w/w) RIPA buffer (Thermo Fisher Scientific; Waltham, MA, USA ) using a ground glass tissue plunger. Homogenized sample was then subjected to probe sonication (Qsonica, Newtown, CT, USA) on ice using a microtip, at an amplitude of 50% at intervals of 10 s on 20 s off, for a total process-time (on-time) of 5 minutes. Crude lysate was then clarified by centrifugation at 10,000xg at 4 °C for 60 min. […] The lysate total protein concentration was then determined using the Bio-Rad detergent compatible (DC) protein assay […]
samples (50 µM final concentration), followed by “click -mix” (50 µM copper sulfate, 100 µM THPTA final concentration), sodium ascorbate (200 µM final concentration), and PBS to achieve a final volume of 200 µL. […] Samples were then analyzed via SDS-PAGE using a 4-12% Bis-Tris pre-cast gel (NuPAGE, Thermo Fisher Scientific). αS monomer labeled with BODIPY-FL maleimide (prepared as previously described13) was used as a control. […]

[3] = tested on: A53T and control mouse brain sections; type: binding
αS fibrils [4] = biological target: T1, αS fibrils
Aβ42 fibrils = Aβ42 fibrils (Homo sapiens, UniProt P05067)
Sequence of Aβ42 fibrils (P05067 672-713 limits assumed): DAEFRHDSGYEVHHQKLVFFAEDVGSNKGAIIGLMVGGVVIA

Crosslinked site / peptide fragment on αS fibrils (αS fibrils [1]) | SMILES | Binding by crosslinking and fluorescent azide labeling in mouse brain lysate [2] | Autoradiography signal in whole brain sections [3] | Kd (αS fibrils [4]) [nM] | Levels of non-specific binding (αS fibrils [4]; saturation binding experiments) | Kd (Aβ42 fibrils) [nM]
residues 22-34; also recorded: Site 2 | C#CCCC1(CCOc2ccc(OCC(=O)Nc3cc(-c4ccc(I)cc4)no3)cc2)N=N1 [ClX2] | binding to αS fibrils, but also to many other proteins in mouse brain lysate |  |  |  | 
 | Cc1ccc(OCC(=O)Nc2cc(-c3ccc([125I])cc3)no2)cc1C [[^125I]61] |  | increased signal in A53T mouse brain in αS-rich regions compared with the control | 1.06 | relatively high | 4.56
